*1 amine or outer side, *2 acyl side, *3 side chain or, on linkers, in order; H or OH if unused. Where a SMILES comes first, the peptide text is derived from it. Bridges are numbered along the chain shown (N, C = ends). [ ]: non-standard residue; d: D form. The star is where a group is joined. hPhe(3-Cl-4-CF3) = N[C@@H](CCc1ccc(C(F)(F)F)c(Cl)c1)C(=O)O; X28 = C#CCN([C@@H](Cc1ccc(C(F)(F)F)cc1)C(=O)[*:2])[*:1]; NPrPhe(4-CF3) = CCCN[C@@H](Cc1ccc(C(F)(F)F)cc1)C(=O)O; Pro(4-spirocPr) = O=C(O)[C@@H]1CC2(CC2)CN1; NMeGly(cPent) = CN[C@H](C(=O)O)C1CCCC1; Pro(4,4-F2) = O=C(O)[C@@H]1CC(F)(F)CN1; NMeD = CN[C@@H](CC(=O)O)C(=O)O; NMeL = CN[C@@H](CC(C)C)C(=O)O; Morpholide = C1CN(*)CCO1; NMeA = CN[C@@H](C)C(=O)O; Ac5c = NC1(C(=O)O)CCCC1; Aze = O=C(O)[C@@H]1CCN1; Ac4c = NC1(C(=O)O)CCC1; Sar = CNCC(=O)O
Assays:
[1] = target: GDP-bound HRAS wild-type protein (Homo sapiens, UniProt P01112); assay: Binding to HRAS by surface plasmon resonance (SPR), Single Cycle Kinetics; settings: SPR
Chain of GDP-bound HRAS wild-type protein (P01112 whole entry): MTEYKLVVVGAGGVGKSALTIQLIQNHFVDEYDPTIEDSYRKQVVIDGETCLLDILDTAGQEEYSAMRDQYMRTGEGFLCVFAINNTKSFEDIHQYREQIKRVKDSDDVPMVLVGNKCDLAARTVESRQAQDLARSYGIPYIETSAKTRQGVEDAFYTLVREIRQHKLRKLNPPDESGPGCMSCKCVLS

[2] = target: GDP-bound NRAS wild-type protein (Homo sapiens, UniProt P01111); assay: Binding to NRAS by surface plasmon resonance (SPR), Single Cycle Kinetics; settings: SPR
Chain of GDP-bound NRAS wild-type protein (P01111 whole entry): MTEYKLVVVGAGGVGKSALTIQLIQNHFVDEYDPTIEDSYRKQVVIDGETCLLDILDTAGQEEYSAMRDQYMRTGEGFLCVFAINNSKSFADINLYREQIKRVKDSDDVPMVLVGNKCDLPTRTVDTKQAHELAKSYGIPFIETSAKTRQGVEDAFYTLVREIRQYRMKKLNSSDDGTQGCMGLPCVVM

[3] = GDP-bound HRAS wild-type vs GDP-bound KRAS wild-type
[4] = GDP-bound NRAS wild-type vs GDP-bound KRAS wild-type

CCC[C@H]1C(=O)N[C@@H]([C@@H](C)CC)C(=O)N(C)CC(=O)N(C)[C@H]2C/C=C\CCN(C2=O)[C@@H](Cc2ccc(C)cc2)C(=O)N(C)CC(=O)N[C@@H](CCc2cc(F)c(C(F)(F)F)c(F)c2)C(=O)N2C[C@H](OCC)C[C@H]2C(=O)N(C)C2(CCC2)C(=O)N(C)[C@@H](C2CCCC2)C(=O)N(C)[C@H](C(=O)N2CCCCC2)CC(=O)N1C [PP3119, (2S,8S,12R,14S,20S,23S,27S,30S,36S,38Z)-20-cyclopentyl-8-[2-[3,5-difluoro-4-(trifluoromethyl)phenyl]ethyl]-12-ethoxy-4,16,19,22,26,32,35-heptamethyl-30-[(1S)-1-methylpropyl]-23-(piperidine-1-carbonyl)-27-propyl-2-(p-tolylmethyl)spiro[1,4,7,10,16,19,22,26,29,32,35-undecazatricyclo[34.5.1.0^10,14]dotetracont-38-ene-17,1′-cyclobutane]-3,6,9,15,18,21,25,28,31,34,42-undecone]
HRAS/KRAS (ratio of KD value with respect to GDP-bound HRAS wild-type protein to KD value with respect to KRAS) ([1]; KD ratio HRAS/KRAS, GDP-bound wild-type proteins): A (a compound having 10 or more and less than 20 is denoted as A)
NRAS/KRAS (ratio of KD value with respect to GDP-bound NRAS wild-type protein to KD value with respect to KRAS) ([2]; KD ratio NRAS/KRAS, GDP-bound wild-type proteins): A (a compound having 10 or more and less than 20 is denoted as A)

CCC(CC)[C@H]1C(=O)N(C)[C@H](C(=O)N(C)C)CC(=O)N(C)[C@@H](CC2CC2)C(=O)N[C@@H]([C@@H](C)CC)C(=O)N(C)CC(=O)N(C)[C@H]2C/C=C\CCN(C2=O)[C@@H](CC2CCC(F)(F)CC2)C(=O)N(C)CC(=O)N[C@@H](CCc2ccc(C(F)(F)F)c(OC)c2)C(=O)N2C[C@@H](C)C[C@H]2C(=O)NC2(CC(C)(C)C2)C(=O)N1C [PP2494]
HRAS/KRAS (ratio of KD value with respect to HRAS to KD value with respect to KRAS) [1, 3]: A (a compound having 10 or more and less than 20 is denoted as A)
NRAS/KRAS (ratio of KD value with respect to NRAS to KD value with respect to KRAS) [2, 4]: A (a compound having 10 or more and less than 20 is denoted as A)

CCCN1C(=O)CN(C)C(=O)CNC(=O)[C@H]([C@@H](C)CC)NC(=O)[C@H](CC(C)C)N(C)C(=O)C[C@@H](C(=O)N(C)C)NC(=O)[C@H](C2CCCC2)N(C)C(=O)C2(CCC2)NC(=O)[C@@H]2CC(F)(F)CN2C(=O)[C@H](CCc2ccc(C(F)(F)F)c(Cl)c2)NC(=O)CN(C)C(=O)[C@@H]1Cc1ccc(C(F)(F)F)cc1 [PP0364] ([NMeL]IG[Sar][NPrPhe(4-CF3)][Sar][hPhe(3-Cl-4-CF3)][Pro(4,4-F2)][Ac4c][NMeGly(cPent)]D-NMe2; lactam N-11)
HRAS/KRAS (ratio of KD for GDP-bound HRAS wild-type to KD for KRAS) ([1]; KD ratio HRAS/KRAS): B (a compound having 3 or more and less than 10 is denoted as B)
NRAS/KRAS (ratio of KD for GDP-bound NRAS wild-type to KD for KRAS) ([2]; KD ratio NRAS/KRAS): B (a compound having 3 or more and less than 10 is denoted as B)

C#CCN1C(=O)CN(C)C(=O)CN(C)C(=O)[C@H]([C@@H](C)CC)NC(=O)[C@H](CC(C)C)N(C)C(=O)C[C@@H](C(=O)N2CCOCC2)N(C)C(=O)[C@H](C2CCCC2)N(C)C(=O)C2(CCCC2)NC(=O)[C@@H]2CCCN2C(=O)[C@H](CCc2ccc(C(F)(F)F)c(Cl)c2)NC(=O)CN(C)C(=O)[C@@H]1Cc1ccc(C(F)(F)F)cc1 [PP0130] ([NMeL]I[Sar][Sar][X28][Sar][hPhe(3-Cl-4-CF3)]P[Ac5c][NMeGly(cPent)][NMeD]-Morpholide; lactam N-11)
HRAS/KRAS (ratio of KD for GDP-bound HRAS wild-type to KD for KRAS) ([1]; KD ratio HRAS/KRAS): C (A compound having a KD ratio of 0.1 or more and less than 3 is denoted as C)
NRAS/KRAS (ratio of KD for GDP-bound NRAS wild-type to KD for KRAS) ([2]; KD ratio NRAS/KRAS): C (A compound having a KD ratio of 0.1 or more and less than 3 is denoted as C)

CCO[C@@H]1C[C@H]2C(=O)NC3(CCC3)C(=O)N(C)[C@@H](C(CC)CC)C(=O)N(C)[C@H](C3CCC3)CC(=O)N(C)[C@@H](CC3CC3)C(=O)N[C@@H]([C@@H](C)CC)C(=O)N(C)CC(=O)N(C)[C@H]3C/C=C\CCN(C3=O)[C@@H](Cc3ccc(C(F)(F)F)cc3)C(=O)N(C)CC(=O)N[C@@H](CCc3cc(F)c(C(F)(F)F)c(F)c3)C(=O)N2C1 [PP1636]
HRAS/KRAS (ratio of KD value for HRAS to KD value for KRAS) ([1]; KD ratio, GDP-bound HRAS wild-type vs GDP-bound KRAS wild-type): A (a compound having 10 or more and less than 20 is denoted as A)
NRAS/KRAS (ratio of KD value for NRAS to KD value for KRAS) ([2]; KD ratio, GDP-bound NRAS wild-type vs GDP-bound KRAS wild-type): A (a compound having 10 or more and less than 20 is denoted as A)

CC[C@H](C)[C@@H]1NC(=O)[C@H](COC)N(C)C(=O)C[C@@H](C(=O)N(C)CC)N(C)C(=O)[C@H](C2CCCC2)N(C)C(=O)C2(CC(C)(C)C2)NC(=O)[C@@H]2C[C@H](C)CN2C(=O)[C@H](CCc2cc(F)c(C(F)(F)F)c(F)c2)NC(=O)CN(C)C(=O)[C@H](Cc2ccc(C)cc2)N2CC/C=C\C[C@@H](C2=O)N(C)C(=O)CN(C)C1=O [PP2437]
HRAS/KRAS (ratio of KD value with respect to HRAS to KD value with respect to KRAS) [1, 3]: A (a compound having 10 or more and less than 20 is denoted as A)
NRAS/KRAS (ratio of KD value with respect to NRAS to KD value with respect to KRAS) [2, 4]: A (a compound having 10 or more and less than 20 is denoted as A)

CCCN1C(=O)[C@@H]2CCN2C(=O)[C@H](C)N(C)C(=O)[C@H]([C@@H](C)CC)NC(=O)[C@H](CC(C)C)N(C)C(=O)C[C@@H](C(=O)N2CCOCC2)N(C)C(=O)[C@H](C2CCCC2)N(C)C(=O)C2(CCCC2)NC(=O)[C@@H]2CC3(CC3)CN2C(=O)[C@H](CCc2ccc(C(F)(F)F)c(Cl)c2)NC(=O)CN(C)C(=O)[C@@H]1Cc1ccc(C(F)(F)F)cc1 [PP0282] ([NMeL]I[NMeA][Aze][NPrPhe(4-CF3)][Sar][hPhe(3-Cl-4-CF3)][Pro(4-spirocPr)][Ac5c][NMeGly(cPent)][NMeD]-Morpholide; lactam N-11)
HRAS/KRAS (ratio of KD for GDP-bound HRAS wild-type to KD for KRAS) ([1]; KD ratio HRAS/KRAS): C (A compound having a KD ratio of 0.1 or more and less than 3 is denoted as C)
NRAS/KRAS (ratio of KD for GDP-bound NRAS wild-type to KD for KRAS) ([2]; KD ratio NRAS/KRAS): C (A compound having a KD ratio of 0.1 or more and less than 3 is denoted as C)

Reference: patent US20250230193A1, “CYCLIC COMPOUND HAVING SELECTIVE KRAS INHIBITORY EFFECT ON HRAS AND NRAS” (CHUGAI SEIYAKU KABUSHIKI KAISHA, priority 2022, published 2025)
